What was measured:
THP1 macrophages = assay: PGE2 and PGF2α secretion (ELISA); type: cell-based, human; conditions: coadministered along with UBM hydrogel
Procedure: (§1) THP-1 human monocytes were obtained from the American Tissue Culture Collection (ATCC, Manassas, VA) and maintained in RPMI, 10% FBS, 1% penicillin/streptomycin, 2 mM L-glutamine, and 1 mM sodium pyruvate in a humidified atmosphere at 37° C. with 5% CO2. For TNFα, PGE2, PGF2α, IL-1β, and IL-1RA experiments, 500,000 THP-1 cells/well were plated with 320 nM phorbol 12-myristate 13-acetate (PMA) for 24 hours to induce differentiation into macrophages. Adherent macrophages were washed in PBS and placed in fresh media, followed by a 24 hour incubation in fresh media to acquiesce. Human PSCs were isolated from blood vessels in fetal muscle according to the methods outlined by Crisan et al. [Purification and long-term culture of multipotent progenitor cells affiliated with the walls of human blood vessels: myoendothelial cells and pericytes. […]
(§2) Macrophages prepared as described in the Cell Culture section were treated with UBM digest (290 μg/mL) or fractionated components (80 μg/mL soluble, 170 μg/mL structural) for 48 (TNFα, IL-1β and IL-1RA), or 72 (PGE2 and PGF2α) hours. […] Commercially available ELISA kits were used to determine the absolute quantities of TNFα (BD Bioscience, San Jose, CA), PGE2 (Enzo, Farmingdale, NY), PGF2α (Enzo, Farmingdale, NY), IL-1β (BD Bioscience, San Jose, CA), and IL1-RA (R&D Systems, Minneapolis, MN) according to the manufacturer's instructions. […]

THP-1 macrophages = assay: TNFα and IL-1β secretion after treatment (ELISA); type: cell-based, human; conditions: 48 hours treatment
Procedure: as §1, §2

Molecule: CS(=O)(=O)Nc1ccc([N+](=O)[O-])cc1OC1CCCCC1 [NS-398]
- PGE2 secretion on co-incubation with COX2 inhibitor (THP1 macrophages): abrogated PGE2 secretion down to control levels

Molecule: lipopolysaccharide [LPS]
- production of TNFα and IL-1β above control (THP-1 macrophages): 100-1000 fold

Reference: patent US20250065017A1, “Fractionating Extracellular Matrix to Modulate Bioactivity and the Host Response” (University of Pittsburgh - Of the Commonwealth System of …, priority 2014, published 2025)
